Consider seven compounds from US3975366A, “Process for the production of new pepstatins having anti-pepsin activity” (Zaidan Hojin Biseibutsu Kagaku Kenkyu Kai, priority 1971, dated 1976).

Each structure is given as a SMILES string. Converted amounts (≈) assume the structure as drawn. “And” between values parts separate entries of the source, which are not always exact repeats. Identical values can stand only once. Counter-ions that a name gives are not always drawn.

One data set deals with pepsin (Sus scrofa, UniProt P00791). In words: anti-pepsin activity (50% inhibition of pepsin, ID50). The class given is biochemical. Set-up: ID50 (50% inhibition against pepsin): unit not given beside the values. The following applies: for ID50 (50% inhibition against pepsin): amount giving 50% inhibition of pepsin.
A further data set is described as follows: physchem. The note with it: methanol, organic solvent or mixture.

Sequence of pepsin (P00791 60-385): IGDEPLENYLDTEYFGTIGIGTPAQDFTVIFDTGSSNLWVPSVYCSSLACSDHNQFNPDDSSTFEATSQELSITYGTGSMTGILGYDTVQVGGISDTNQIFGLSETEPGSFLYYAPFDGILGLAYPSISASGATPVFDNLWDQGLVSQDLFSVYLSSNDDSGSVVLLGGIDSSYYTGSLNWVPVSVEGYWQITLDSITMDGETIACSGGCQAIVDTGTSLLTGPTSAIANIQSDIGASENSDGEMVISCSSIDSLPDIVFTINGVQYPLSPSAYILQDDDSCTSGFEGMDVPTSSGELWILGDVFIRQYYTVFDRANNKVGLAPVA

For the compound `CC(=NNc1ccc([N+](=O)[O-])cc1[N+](=O)[O-])C(CC(C)C)NC(=O)C(C)NC(=O)CC(O)C(CC(C)C)NC(=O)C(NC(=O)C(NC(=O)CC(C)C)C(C)C)C(C)C` (stereo not drawn), the “pepsin-inhibitory activity as % of the activity of pepstatin (pepstatin A)” value at pepsin (relative to pepstatin A) is given as 37%.
Regarding `CCCCCC(=O)N[C@H](C(=O)N[C@H](C(=O)NC(CC(C)C)C(O)CC(=O)N[C@@H](C)C(=O)NC(CC(C)C)C(O)CC(=O)OC)C(C)C)C(C)C` (stereo partly drawn) [methyl ester of pepstatin B], the solubility in “physchem” is 5 to 10 mg/mL (≈ 7 to 14 mM). The “anti-pepsin activity compared with pepstatin methyl ester” value on pepsin (comparison in words) is “the same as that of pepstatin methyl ester”. Further, the Id50 at pepsin (unit not given, third crystals of Example 3) is 0.05.
With `CCCCCC(=O)N[C@H](C(=O)N[C@H](C(=O)NC(CC(C)C)C(O)CC(=O)N[C@@H](C)C(=O)NC(CC(C)C)C(O)CC(=O)OCCCC)C(C)C)C(C)C` (stereo partly drawn) [new pepstatin B n-butyl ester], the “ID50 (50% inhibition against pepsin)” value at pepsin was 0.084 γ.
Regarding `CCCCCC(=O)N[C@H](C(=O)N[C@H](C(=O)NC(CC(C)C)C(O)CC(=O)N[C@@H](C)C(=O)NC(CC(C)C)C(O)CC(=O)OCC)C(C)C)C(C)C` (stereo partly drawn) [pepstatin B ethyl ester], the “ID50 (50% inhibition against pepsin)” value on pepsin was 0.054 γ.
Regarding `CCCCCC(=O)N[C@H](C(=O)N[C@H](C(=O)NC(CC(C)C)C(O)CC(=O)N[C@@H](C)C(=O)NC(CC(C)C)C(O)CC(=O)OCCC)C(C)C)C(C)C` (stereo partly drawn) [pepstatin B n-propylester], the “ID50 (50% inhibition against pepsin)” value at pepsin is reported as 0.073 γ.
Regarding `CCCCCC(=O)N[C@H](C(=O)N[C@H](C(=O)N[C@@H](CC(C)C)[C@@H](O)CC(=O)N[C@@H](C)C(=O)N[C@@H](CC(C)C)[C@@H](O)CC(=O)O)C(C)C)C(C)C` [pepstatin B], in the data set “physchem”, the solubility is 100 mg/mL (≈ 143 mM).
`CCCCCC(=O)N[C@H](C(=O)N[C@H](C(=O)NC(CC(C)C)C(O)CC(=O)N[C@@H](C)C(=O)NC(CC(C)C)C(O)CC(=O)O)C(C)C)C(C)C` (stereo partly drawn) [sodium salt of pepstatin B]: on pepsin, the “ID50 (50% inhibition against pepsin)” value is 0.055 γ and 0.05 γ.

The term solubility denotes how much of the substance goes into solution per volume.
